# From patent US10626100B2, “Selective HDAC6 inhibitors” (The Trustees of Columbia University in the City of New York, priority 2013, dated 2020)
# Entries after “also recorded” stand apart in the source; their conditions may differ.
# Experiments:
# [1] = molecular target: HDAC1 (Homo sapiens, UniProt Q13547); test: Inhibition of recombinant HDAC1; type: biochemical; details: read-out: IC50 (nM) HCAC1
# [2] = system: acetylated alpha-tubulin and acetylated histone H3 in LNCaP (human prostate cancer cells); test: Accumulation of acetylated proteins in LNCaP cells (western blot); type: cell-based
# Procedure: FIG. 2. Blot showing accumulation of acetylated alpha-tubulin and acetylated histone H3 in LNCaP (human prostate cancer cells) cultured with compounds 8 or 11. GADPH used as loading control.
# FIG. 5. Western blots of acetylated alpha-tubulin (Acet-Tub) and acetylated histone H3 (Acet-H3) in HFS (normal) and LNCaP (transformed) cells treated with compound 8 at 8, 16, 32, and 64 μM for 24 h. Western blots of GAPDH and total histone H3 (Total-H3) are loading controls.
# (§1) Recombinant HDAC1 and HDAC6 are used to evaluate the selective inhibitory potency of each compound. Cell based assays: Normal cells (Human Foreskin Fibroblast cells), LNCaP (human prostate cancer cells), MCF-7 (human breast cancer cells, A549 (human adenocarcinoma of lung cells) and ARP-1 (human multiple myeloma cells) are used in these assays. Cells were cultured for up to 72 hr without and with the potential HDAC6-selective inhibitor. SAHA was used as a control. Cell number and cell viability were determined by enumeration. Proteins were extracted from cells and assayed for accumulation of acetylated tubulin and acetylated histones. All methods are described in Namdar et al., PNAS, 2010, 107:20003-8. In vivo animal studies: Potential HDAC6 inhibitor compounds are further assayed by administration to mice for up to 5 days with daily injections. Animals are sacrificed and tissues are analyzed for accumulation of acetylated tubulin and acetylated histones.
# [3] = system: HFS (human foreskin fibroblast) cells; test: Cell growth and viability of HFS normal cells; type: cell-based
# Procedure: FIG. 3. Cell growth of HFS (normal) and LNCaP (transformed) cells treated with compound 8 over 72 h.
# FIG. 4. Cell viability of HFS (normal) and LNCaP (transformed) cells treated with compound 8 over 72 h.
# as §1
# The effect of compound 8 on the cell growth and viability of normal (HFS, human foreskin fibroblast) and transformed (LNCaP, human prostate adenocarcinoma) cells cultured with 8, 16, 32 or 64 μM HPB for up to 72 h was evaluated.
# [4] = system: acetylated alpha-tubulin and acetylated histone H3 in spleen; test: Acetylation of alpha-tubulin and histones in spleen of treated mice; type: in vivo
# Procedure: FIG. 7. Immunoblots of spleens harvested at indicated times after the last injection. Immune-deficient mice were treated daily by 30 μL intraperitoneal injection with indicated doses of compound 8. DMSO is the vehicle control. Western blots of acetylated alpha-tubulin (Acet-Tub) and acetylated histone H3 (Acet-H3). Western blots of HSP90 and total histone H3 (Total-H3) are loading controls.
# as §1
# Toxicity of compound 8 in mice was determined. […] Mice were intraperitoneally injected daily for 5 days with 100, 200, or 300 mg/kg compound 8. […] The effects of compound 8 on the acetylation of alpha-tubulin and histones in the spleen isolated from mice treated with compound 8 were analyzed at three time points after the administration of the drug.
# [5] = system: LNCaP (transformed) cells; test: Combination with anti-cancer agents in LNCaP cells; type: cell-based
# [6] = system: HFS (normal) cells; test: Combination with anti-cancer agents in HFS cells; type: cell-based, human; details: compound 8 alone or in combination with etoposide, paclitaxel, or SAHA, 72 h
# [7] = system: androgen-dependent CWR22 human prostate cancer xenograft; test: CWR22 human prostate cancer xenograft in nude mice; type: in vivo
# [8] = system: acetylated alpha-tubulin and histones in CWR22 tumors and spleen; test: Acetylated lysine patterns in CWR22 tumors and spleen; type: in vivo, nude mice
# Description: Tumors and spleen are removed from the animals, and histones and proteins are extracted for the detection of acetylated lysine patterns.
# [9] = system: acetylated alpha-tubulin and acetylated histone H3 in LNCaP (human prostate cancer cells); test: Accumulation of acetylated proteins in LNCaP cells (western blot); type: cell-based; details: transformed cells, concentrations as high as 16 μM
# [10] = LNCaP cells, 8 μM to 64 μM, 24 h, FIG. 5
# [11] = transformed cells, concentrations as high as 16 μM
# [12] = 21 days, daily 300 mg/kg compound 8 or weekly 3 mg/kg etoposide alone
# Chain of HDAC1 (Q13547 whole entry): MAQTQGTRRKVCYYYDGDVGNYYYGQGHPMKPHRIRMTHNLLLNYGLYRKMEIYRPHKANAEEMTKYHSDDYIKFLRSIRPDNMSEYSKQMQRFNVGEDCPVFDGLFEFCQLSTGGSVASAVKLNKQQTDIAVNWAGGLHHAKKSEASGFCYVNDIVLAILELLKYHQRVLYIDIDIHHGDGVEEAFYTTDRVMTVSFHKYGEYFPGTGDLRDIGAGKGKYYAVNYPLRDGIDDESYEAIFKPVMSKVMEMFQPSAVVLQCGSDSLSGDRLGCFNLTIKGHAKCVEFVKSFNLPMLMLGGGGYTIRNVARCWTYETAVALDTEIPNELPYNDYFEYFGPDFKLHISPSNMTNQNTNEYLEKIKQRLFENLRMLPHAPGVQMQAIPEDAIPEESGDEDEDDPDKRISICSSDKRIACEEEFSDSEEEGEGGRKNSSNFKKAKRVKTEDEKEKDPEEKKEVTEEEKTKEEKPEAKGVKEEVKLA
compound,measurement,setting,value
"O=C(NO)c1ccc(CN(CCO)C(=O)Cc2ccccc2)cc1 [Compound 8, N-hydroxy-4-((N-(2-hydroxyethyl)-2-phenylacetamido)methyl) benzamide]",IC50,[1],1130 nM
same,accumulation of acetylated alpha-tubulin,[2]; [10],caused accumulation of acetylated alpha-tubulin
same,accumulation of acetylated histones,[2]; [10],not of acetylated histones
same,accumulation of acetylated histones (H3),"[2]; LNCaP cells, FIG. 2",did not cause accumulation of actylated histones; also recorded: without induction of H3 acetylation
same,accumulation of acetylated α-tubulin,"[2]; LNCaP cells, FIG. 2",caused the accumulation of acetylated α-tubulin; also recorded: significant levels of tubulin acylation were present
same,accumulation of acetylated alpha-tubulin,[2]; [11],selectively induced accumulation of acetylated alpha-tubulin and acetylated PRX
same,accumulation of acetylated histones,[2]; [11],not of acetylated histones
same,cell growth,"[3]; HFS, 8, 16, 32 or 64 μM, up to 72 h, FIG. 3",inhibited cell growth of normal and transformed cells in a concentration dependent manner
same,cell death / cell viability,"[3]; HFS, 8, 16, 32 or 64 μM, up to 72 h, FIG. 4",did not induce cell death of normal or transformed cells
same,normal cell death,[3]; concentrations ≤16 μM,do not induce normal cell death
same,accumulation of acetylated tubulin in the spleen,"[4]; 1.5 h after injection, FIG. 7",increased accumulation of acetylated tubulin
same,accumulation of acetylated tubulin in the spleen,[4]; 5 h after injection,reduced to the level seen in vehicle-treated controls
same,accumulation of acetylated histones in the spleen,[4]; FIG. 7,no detectable accumulation of acetylated histones
same,cell growth and cell viability in combination with etoposide,"[5]; LNCaP, 50 μM etoposide and 16 μM compound 8, 72 h, versus etoposide alone",inhibition in cell growth and loss of cell viability to a greater extent than LNCaP cells cultured with etoposide alone; also recorded: enhances etoposide or SAHA-induced transformed cell death
same,cell death in combination with SAHA,"[5]; LNCaP, compound 8 and 5 μM SAHA, 72 h, versus SAHA alone",cell death is enhanced; also recorded: enhances etoposide or SAHA-induced transformed cell death
same,cell death in combination with paclitaxel,"[5]; LNCaP, paclitaxel and compound 8, 72 h, versus either drug alone",increases cell death
same,cytotoxicity of anti-cancer drugs in transformed cells cultured with compound 8,"[5]; transformed cells, induction of apoptosis and accumulation of DNA damage",enhances the cytotoxicity of anti-cancer drugs
same,cell growth,[6],inhibits cell growth
same,cell viability,[6],does not induce loss of cell viability
same,"growth of established CWR22 tumors, single agent",[7]; [12],no significant suppression of the growth
same,"weight loss, single agent",[7]; [12],no weight loss
same,"growth of established CWR22 tumors, combination with etoposide","[7]; daily compound 8 and weekly etoposide, versus vehicle-treated control animals",causes suppression of the growth of established CWR22 tumors; also recorded: significantly enhances the anti-tumor effect of etoposide
same,"accumulation of acetylated alpha-tubulin in CWR22 tumors and spleen, combination with etoposide",[8]; combination of compound 8 and etoposide,increased accumulation of acetylated alpha-tubulin
same,"accumulation of histones in tumors, combination with etoposide",[8]; combination of etoposide and compound 8,Increased levels of accumulation of histones
same,"accumulation of histones in tumors, single agent",[8]; mice injected with compound 8 alone or etoposide,not with compound 8 alone
same,"accumulation of acetylated alpha-tubulin in CWR22 tumors and spleen, single agent",[8]; mice treated with compound 8 or etoposide,increased accumulation of acetylated alpha-tubulin
same,accumulation of acetylated PRX,[9],selectively induced accumulation of acetylated alpha-tubulin and acetylated PRX
